Measured values as given in ChEMBL document CHEMBL1201862, “PubChem BioAssay data set” (2004).
Calls of active or inactive are those of the source.

Experiments:
[1] = biological target: T1, Kappa-type opioid receptor (Homo sapiens, UniProt P41145); experiment: SAR analysis of Antagonists of the Kappa Opioid Receptor (KOR) using an Image-Based Assay - Set 2. [Related pubchem assays (depositor defined):AID1777, AID1785, AID1786, AID1966, AID2133, AID2136, AID2284, AID2285, AID2348]; assay type: functional
[2] = biological target: T1, Kappa-type opioid receptor; experiment: SAR analysis of small molecule agonists of the kappa opioid receptor via a luminescent beta-arrestin assay - Set 2. [Related pubchem assays (depositor defined):AID1777, AID1785, AID1786, AID1966, AID2133, AID2136, AID2284, AID449737]; assay type: functional
[3] = biological target: Delta-type opioid receptor (Homo sapiens, UniProt P41143); experiment: SAR Analysis of Antagonists of the DOR Receptor using an Image-Based Assay - Set 2. [Related pubchem assays (depositor defined):AID1777, AID1785, AID1786, AID1966, AID2133, AID2136, AID2284, AID2285, AID2357]; assay type: functional
Coagulation factor XII = biological target: T2, Coagulation factor XII (Homo sapiens, UniProt P00748); experiment: Factor XIIa Dose Response Confirmation from Single Well HTS. [Related pubchem assays (depositor defined):AID701]; assay type: functional
T2 sequence (P00748 whole entry): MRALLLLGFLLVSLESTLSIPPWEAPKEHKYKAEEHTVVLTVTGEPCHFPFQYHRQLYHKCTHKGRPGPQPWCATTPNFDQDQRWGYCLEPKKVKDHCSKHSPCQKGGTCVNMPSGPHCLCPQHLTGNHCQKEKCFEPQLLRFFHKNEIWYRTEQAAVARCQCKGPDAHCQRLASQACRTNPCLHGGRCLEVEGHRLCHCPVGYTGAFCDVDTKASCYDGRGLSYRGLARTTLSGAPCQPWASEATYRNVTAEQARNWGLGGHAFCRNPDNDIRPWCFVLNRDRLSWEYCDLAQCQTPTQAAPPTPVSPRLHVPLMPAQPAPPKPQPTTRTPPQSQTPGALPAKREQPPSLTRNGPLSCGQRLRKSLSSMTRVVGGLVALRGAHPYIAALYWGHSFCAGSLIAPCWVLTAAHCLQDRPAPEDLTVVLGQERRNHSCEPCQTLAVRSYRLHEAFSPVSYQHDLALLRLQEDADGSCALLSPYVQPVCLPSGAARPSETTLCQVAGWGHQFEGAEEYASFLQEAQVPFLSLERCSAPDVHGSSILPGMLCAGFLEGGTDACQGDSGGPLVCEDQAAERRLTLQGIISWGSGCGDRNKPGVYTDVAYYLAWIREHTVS

[4] = biological target: T3, Replicative DNA helicase DnaB (Mycobacterium tuberculosis, UniProt P9WMR3); experiment: DnaB intein splicing inhibitors, dose response, biochemical, cell-free fluorescence (AID 449749); assay type: functional
T3 sequence (P9WMR3 whole entry): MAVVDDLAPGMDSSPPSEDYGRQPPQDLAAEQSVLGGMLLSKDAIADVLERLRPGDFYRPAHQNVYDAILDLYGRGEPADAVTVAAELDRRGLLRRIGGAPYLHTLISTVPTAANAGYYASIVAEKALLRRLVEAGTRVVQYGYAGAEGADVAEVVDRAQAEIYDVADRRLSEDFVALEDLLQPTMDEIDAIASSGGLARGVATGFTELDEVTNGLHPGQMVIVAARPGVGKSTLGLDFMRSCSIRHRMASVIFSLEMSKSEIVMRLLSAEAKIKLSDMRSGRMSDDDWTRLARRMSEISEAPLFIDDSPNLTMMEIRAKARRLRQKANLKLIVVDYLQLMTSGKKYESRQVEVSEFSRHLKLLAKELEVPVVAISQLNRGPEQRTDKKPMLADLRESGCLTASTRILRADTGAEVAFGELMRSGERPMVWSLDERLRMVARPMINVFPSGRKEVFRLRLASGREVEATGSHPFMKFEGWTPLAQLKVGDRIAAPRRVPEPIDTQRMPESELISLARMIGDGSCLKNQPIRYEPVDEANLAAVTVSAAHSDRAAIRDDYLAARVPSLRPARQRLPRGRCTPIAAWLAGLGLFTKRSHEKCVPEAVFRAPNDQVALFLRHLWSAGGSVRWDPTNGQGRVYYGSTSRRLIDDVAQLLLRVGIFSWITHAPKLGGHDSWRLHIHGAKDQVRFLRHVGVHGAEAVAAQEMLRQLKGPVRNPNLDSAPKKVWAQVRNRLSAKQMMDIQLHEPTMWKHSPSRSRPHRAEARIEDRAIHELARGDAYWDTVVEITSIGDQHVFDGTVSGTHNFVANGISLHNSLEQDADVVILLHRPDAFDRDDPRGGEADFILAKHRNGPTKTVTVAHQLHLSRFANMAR

Protein RecA = biological target: T4, Protein RecA (Mycobacterium tuberculosis, UniProt P9WHJ3); experiment: Fluorescence Cell-Free Homogeneous Dose Retest to Identify Inhibitors of RecA-Intein Splicing Activity. [Related pubchem assays (depositor defined):AID2097, AID2223, AID489010, AID492950]; assay type: functional
T4 sequence (P9WHJ3 whole entry): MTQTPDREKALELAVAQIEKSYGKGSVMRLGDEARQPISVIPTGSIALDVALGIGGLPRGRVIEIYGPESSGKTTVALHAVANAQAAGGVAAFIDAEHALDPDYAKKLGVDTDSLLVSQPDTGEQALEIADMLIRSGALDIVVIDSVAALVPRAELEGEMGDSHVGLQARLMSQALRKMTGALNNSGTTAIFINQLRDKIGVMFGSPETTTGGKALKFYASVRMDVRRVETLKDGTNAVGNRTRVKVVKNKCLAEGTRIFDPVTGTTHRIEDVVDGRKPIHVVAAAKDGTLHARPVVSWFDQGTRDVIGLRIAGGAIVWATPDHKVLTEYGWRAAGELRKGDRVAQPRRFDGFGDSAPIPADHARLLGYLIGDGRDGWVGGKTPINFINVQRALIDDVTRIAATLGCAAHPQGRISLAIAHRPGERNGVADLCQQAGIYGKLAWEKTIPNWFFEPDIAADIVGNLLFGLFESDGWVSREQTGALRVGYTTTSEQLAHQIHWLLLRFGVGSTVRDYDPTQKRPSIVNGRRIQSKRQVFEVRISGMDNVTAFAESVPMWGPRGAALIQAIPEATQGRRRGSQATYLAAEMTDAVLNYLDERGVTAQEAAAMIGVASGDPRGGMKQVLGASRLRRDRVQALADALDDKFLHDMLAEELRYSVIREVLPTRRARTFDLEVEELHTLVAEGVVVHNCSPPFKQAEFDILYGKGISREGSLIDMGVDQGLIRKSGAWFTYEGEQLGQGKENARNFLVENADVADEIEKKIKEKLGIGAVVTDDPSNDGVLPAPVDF

[5] = Luminescence Cell-Based Dose Response HTS to Identify Inhibitors of Luciferase Translation or Activity in H4-C Neuroglioblastoma Cells. [Related pubchem assays: 1813 (Primary HTS), 1827 (Project Summary)]; assay type: functional
[6] = Luminescence Cell-Based Dose Response HTS to Identify Activators of Luciferase Translation or Activity in H4-C Neuroglioblastoma Cells. [Related pubchem assays: 1829 (Project Summary), 1814 (Primary HTS)]; assay type: functional
[7] = inhibitors of firefly luciferase expression or activity, dose response, H4 neuroglioma cells, luminescence (AID 1990); assay type: functional, cell-based
[8] = luciferase reporter signal reduction – luminescence, H4-C neuroglioblastoma cells, dose response (AID 2458); assay type: functional, cell-based;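 further: H4 neuroglioblastoma cells stably carrying a luciferase reporter gene fusion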
[9] = Luminescence Cell-Based Dose Retest to Confirm Activators of 5'UTR Stem-Loop Driven Alpha-Synuclein mRNA Translation in H4 Neuroglioblastoma Cells. [Related pubchem assays (depositor defined):AID1813, AID1829]; assay type: functional
[10] = Luminescence Cell-Based Dose Response HTS to Identify Activators of 5'UTR Stem-Loop Driven Prion Protein mRNA Translation in H4-C Neuroglioblastoma Cells. [Related pubchem assays: 1829 (Project Summary), 1814 (Primary HTS)]; assay type: functional
[11] = Luminescence Cell-Based Dose HTS Response to Identify Inhibitors of 5'UTR Stem-Loop Driven Prion Protein mRNA Translation in H4-C Neuroglioblastoma Cells. [Related pubchem assays (depositor defined):AID1814, AID1827]; assay type: functional
cells = assay type: functional, cell-based
[12] = Luminescence Cell-Based Dose Response HTS to Identify Inhibitors of 5'UTR Stem-Loop Driven Prion Protein mRNA Translation in H4 Neuroglioblastoma Cells. [Related pubchem assays: 1827 (Project Summary), 1813 (Primary HTS)]; assay type: functional
[13] = inhibitors of SNCA 5'UTR-driven reporter translation, confirmation, H4 neuroglioma cells, luminescence (AID 1988); assay type: functional, cell-based
[14] = Luminescence Cell-Based Dose Confirmation HTS to Identify Inhibitors of 5'UTR Stem-Loop Driven Alpha-Synuclein mRNA Translation in H4 Neuroglioblastoma Cells. [Related pubchem assays: 1827 (Project Summary), 1813 (Primary HTS)]; assay type: functional
J774.A1 = experiment: Confirmation of image-based Screening Assay for Inhibitors of Phagocytosis. [Related pubchem assays (depositor defined):AID1029, AID1643]; assay type: functional, cell-based; settings: Mus musculus
[15] = inhibitors of SNCA 5'UTR-driven translation, confirmation, luminescence, H4 neuroglioblastoma cells, dose confirmation (AID 2454); assay type: functional, cell-based;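 further: H4 neuroglioblastoma cells carrying an alpha-synuclein 5'UTR luciferase reporter; potency for inhibition of the luciferase signal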
[16] = biological target: Sphingosine 1-phosphate receptor 4 (Homo sapiens, UniProt O95977); experiment: Late-stage fluorescence dose response cell-based assay to identify agonists of the Sphingosine 1-Phosphate Receptor 4 (S1P4): purchased compounds EC50. [Related pubchem assays (depositor defined):AID1509, AID1523, AID1563, AID1686, AID1701, AID1801]; assay type: functional
[17] = biological target: T5, G-protein coupled receptor 35 (Homo sapiens, UniProt Q9HC97); experiment: SAR analysis of Agonists of the GPR35 Receptor using an Image-Based Assay - Set 4. [Related pubchem assays (depositor defined):AID2013, AID2026]; assay type: functional
Cannabinoid receptor 1 [18] = biological target: T6, Cannabinoid receptor 1 (Homo sapiens, UniProt P21554); experiment: SAR analysis of agonists of the Cannabinoid Receptor 1 using an Image-Based Assay - Set 4. [Related pubchem assays (depositor defined):AID2013, AID2026]; assay type: functional
[19] = biological target: T5, G-protein coupled receptor 35; experiment: SAR analysis of Antagonists of the GPR35 Receptor using an Image-Based Assay - Set 6. [Related pubchem assays (depositor defined):AID2013, AID2026]; assay type: functional
Cannabinoid receptor 1 [20] = biological target: T6, Cannabinoid receptor 1; experiment: SAR analysis of antagonists of the Cannabinoid Receptor 1 using an Image-Based Assay - Set 4. [Related pubchem assays (depositor defined):AID2013, AID2026]; assay type: functional
[21] = biological target: G-protein coupled receptor 55 (Homo sapiens, UniProt Q9Y2T6); experiment: SAR Analysis of Selective Antagonists of GPR55 using an Image-Based Assay - Set 4. [Related pubchem assays (depositor defined):AID2013, AID2026]; assay type: functional;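 further: antagonism of response to 5 µM lysophosphatidylinositol agonist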
Cannabinoid receptor 2 [22] = biological target: T7, Cannabinoid receptor 2 (Homo sapiens, UniProt P34972); experiment: SAR analysis of antagonists of the Cannabinoid Receptor 2 using an Image-Based Assay - Set 3. [Related pubchem assays (depositor defined):AID2013, AID2026]; assay type: functional
Cannabinoid receptor 2 [23] = biological target: T7, Cannabinoid receptor 2; experiment: SAR analysis of agonists of the Cannabinoid Receptor 2 using an Image-Based Assay - Set 3. [Related pubchem assays (depositor defined):AID2013, AID2026]; assay type: functional
[24] = biological target: Voltage-dependent T-type calcium channel subunit alpha-1H (Homo sapiens, UniProt O95180); experiment: Cav3.2 T-type channel inhibitors, synthesized analogs, SAR follow-up, cell-based, synthetic library set 2, HEK293 HH8, Fluo-4 (AID 493023); assay type: functional
[25] = biological target: T8, Peroxisome proliferator-activated receptor gamma (Homo sapiens, UniProt P37231); experiment: PPARg ligand-binding domain binders, dose response, PPARg partial agonist project, biochemical, TR-FRET, LanthaScreen (AID 504446)
[26] = biological target: T8, Peroxisome proliferator-activated receptor gamma; experiment: PPARg partial agonists, dose response, cell-based, luminescence, assay provider (AID 504447); assay type: functional
[27] = biological target: Peroxisome proliferator-activated receptor alpha (Homo sapiens, UniProt Q07869); experiment: Late stage assay provider counterscreen for partial agonists of the peroxisome proliferator-activated receptor gamma (PPARg): Luminescence-based cell-based dose response assay for partial agonists of the peroxisome proliferator-activated receptor alpha (PPARA). [Related pubchem assays (depositor defined):AID1051, AID1300, AID1319, AID1679, AID1808, AID504446, AID504447, AID504452, AID504453, AID631]; assay type: functional
Peroxisome proliferator-activated receptor alpha, sequence (Q07869 whole entry): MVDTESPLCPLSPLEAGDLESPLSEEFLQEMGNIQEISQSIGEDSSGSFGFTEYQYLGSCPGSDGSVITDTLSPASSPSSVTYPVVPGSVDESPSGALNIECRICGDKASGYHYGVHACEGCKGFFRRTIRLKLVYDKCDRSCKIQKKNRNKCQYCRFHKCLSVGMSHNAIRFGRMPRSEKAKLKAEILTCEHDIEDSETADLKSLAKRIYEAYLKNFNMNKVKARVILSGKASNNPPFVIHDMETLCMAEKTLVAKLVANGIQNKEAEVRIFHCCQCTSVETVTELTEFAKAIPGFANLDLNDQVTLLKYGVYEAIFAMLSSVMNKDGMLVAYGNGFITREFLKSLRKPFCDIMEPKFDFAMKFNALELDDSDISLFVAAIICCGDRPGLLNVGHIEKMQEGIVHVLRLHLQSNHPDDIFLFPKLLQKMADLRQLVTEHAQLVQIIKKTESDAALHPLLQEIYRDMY

T7 sequence (P34972 whole entry): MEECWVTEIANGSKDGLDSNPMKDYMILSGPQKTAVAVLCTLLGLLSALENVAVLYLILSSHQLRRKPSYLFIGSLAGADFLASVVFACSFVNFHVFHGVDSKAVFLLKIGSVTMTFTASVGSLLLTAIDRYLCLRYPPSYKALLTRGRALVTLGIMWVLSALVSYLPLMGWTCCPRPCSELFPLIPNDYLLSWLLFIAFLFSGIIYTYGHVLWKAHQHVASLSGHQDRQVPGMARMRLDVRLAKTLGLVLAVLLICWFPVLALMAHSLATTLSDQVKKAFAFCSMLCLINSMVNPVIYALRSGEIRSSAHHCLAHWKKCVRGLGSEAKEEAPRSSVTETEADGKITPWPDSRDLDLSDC
T5 sequence (Q9HC97 whole entry): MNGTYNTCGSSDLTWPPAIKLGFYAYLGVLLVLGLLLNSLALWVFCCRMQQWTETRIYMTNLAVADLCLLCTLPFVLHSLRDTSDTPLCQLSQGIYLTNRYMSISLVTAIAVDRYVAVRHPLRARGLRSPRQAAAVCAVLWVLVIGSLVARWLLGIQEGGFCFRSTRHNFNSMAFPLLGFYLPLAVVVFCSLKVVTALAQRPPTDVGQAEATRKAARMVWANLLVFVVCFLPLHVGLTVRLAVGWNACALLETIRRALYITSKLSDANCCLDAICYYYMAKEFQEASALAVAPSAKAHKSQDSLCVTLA
T1 sequence (P41145 whole entry): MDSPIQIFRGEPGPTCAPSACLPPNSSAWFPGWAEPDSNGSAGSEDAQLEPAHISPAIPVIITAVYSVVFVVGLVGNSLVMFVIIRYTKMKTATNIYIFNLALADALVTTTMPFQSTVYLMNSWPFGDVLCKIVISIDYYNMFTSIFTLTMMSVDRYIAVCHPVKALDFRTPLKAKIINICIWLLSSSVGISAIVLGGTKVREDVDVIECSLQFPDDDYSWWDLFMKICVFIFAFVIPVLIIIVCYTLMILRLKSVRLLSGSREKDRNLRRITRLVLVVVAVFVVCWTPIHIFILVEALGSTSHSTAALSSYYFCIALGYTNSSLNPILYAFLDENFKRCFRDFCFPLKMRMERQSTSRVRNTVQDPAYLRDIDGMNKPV
T6 sequence (P21554 whole entry): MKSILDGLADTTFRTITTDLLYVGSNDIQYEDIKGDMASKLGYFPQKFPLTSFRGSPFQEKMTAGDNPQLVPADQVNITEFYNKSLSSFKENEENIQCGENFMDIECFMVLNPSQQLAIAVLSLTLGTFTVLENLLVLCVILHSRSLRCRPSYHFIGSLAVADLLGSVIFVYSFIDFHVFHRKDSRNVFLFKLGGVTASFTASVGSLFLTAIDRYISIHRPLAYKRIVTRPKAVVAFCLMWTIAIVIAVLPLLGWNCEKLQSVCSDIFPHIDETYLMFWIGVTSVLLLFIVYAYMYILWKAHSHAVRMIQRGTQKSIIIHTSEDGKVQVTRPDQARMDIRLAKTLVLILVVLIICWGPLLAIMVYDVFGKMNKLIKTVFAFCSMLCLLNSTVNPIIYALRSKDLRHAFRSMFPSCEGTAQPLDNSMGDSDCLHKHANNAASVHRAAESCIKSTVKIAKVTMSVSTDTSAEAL
T8 sequence (P37231 whole entry, the tested form may be a part): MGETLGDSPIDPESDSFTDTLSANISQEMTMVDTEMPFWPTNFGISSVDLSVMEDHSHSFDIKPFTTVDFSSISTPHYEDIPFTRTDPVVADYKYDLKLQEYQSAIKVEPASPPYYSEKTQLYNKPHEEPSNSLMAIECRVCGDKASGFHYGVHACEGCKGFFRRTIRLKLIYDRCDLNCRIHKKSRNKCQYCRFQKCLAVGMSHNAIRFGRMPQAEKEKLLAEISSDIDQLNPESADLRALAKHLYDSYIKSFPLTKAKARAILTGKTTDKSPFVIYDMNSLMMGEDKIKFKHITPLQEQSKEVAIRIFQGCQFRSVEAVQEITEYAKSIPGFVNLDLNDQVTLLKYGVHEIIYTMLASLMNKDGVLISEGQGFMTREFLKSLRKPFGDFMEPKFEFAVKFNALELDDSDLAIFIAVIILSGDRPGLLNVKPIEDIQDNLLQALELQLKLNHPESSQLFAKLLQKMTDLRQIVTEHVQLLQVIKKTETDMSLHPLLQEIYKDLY
Sphingosine 1-phosphate receptor 4, sequence (O95977 whole entry): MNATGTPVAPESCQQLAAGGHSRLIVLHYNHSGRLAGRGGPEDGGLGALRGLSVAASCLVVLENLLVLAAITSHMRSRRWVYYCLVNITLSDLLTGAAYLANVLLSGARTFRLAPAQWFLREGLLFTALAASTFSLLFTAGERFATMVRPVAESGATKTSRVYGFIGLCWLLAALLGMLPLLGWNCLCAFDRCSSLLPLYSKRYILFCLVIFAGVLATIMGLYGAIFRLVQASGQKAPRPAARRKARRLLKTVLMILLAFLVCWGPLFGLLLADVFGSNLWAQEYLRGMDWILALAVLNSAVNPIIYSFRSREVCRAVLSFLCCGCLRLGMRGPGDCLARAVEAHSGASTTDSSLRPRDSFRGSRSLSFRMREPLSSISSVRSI
G-protein coupled receptor 55, sequence (Q9Y2T6 whole entry): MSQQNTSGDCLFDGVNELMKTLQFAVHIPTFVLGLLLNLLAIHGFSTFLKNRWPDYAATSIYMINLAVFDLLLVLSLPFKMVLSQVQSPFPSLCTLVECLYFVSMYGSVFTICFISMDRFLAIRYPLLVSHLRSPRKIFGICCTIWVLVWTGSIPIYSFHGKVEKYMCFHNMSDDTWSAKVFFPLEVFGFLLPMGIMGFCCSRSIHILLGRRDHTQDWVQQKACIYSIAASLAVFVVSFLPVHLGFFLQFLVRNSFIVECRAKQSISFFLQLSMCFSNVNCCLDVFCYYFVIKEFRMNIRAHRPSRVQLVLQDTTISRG
Delta-type opioid receptor, sequence (P41143 whole entry): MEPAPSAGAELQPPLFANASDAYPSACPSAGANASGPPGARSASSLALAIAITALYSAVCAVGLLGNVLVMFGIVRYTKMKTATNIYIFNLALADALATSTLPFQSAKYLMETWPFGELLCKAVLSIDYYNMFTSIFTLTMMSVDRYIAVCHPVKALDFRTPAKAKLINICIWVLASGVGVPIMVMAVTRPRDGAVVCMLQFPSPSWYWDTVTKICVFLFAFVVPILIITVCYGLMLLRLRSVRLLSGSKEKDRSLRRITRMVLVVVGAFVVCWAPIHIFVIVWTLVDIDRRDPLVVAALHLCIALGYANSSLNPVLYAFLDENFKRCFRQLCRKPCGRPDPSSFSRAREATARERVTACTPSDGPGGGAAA

CC[C@](C)(C(=O)NC1CCCCC1)N(Cc1ccco1)C(=O)c1ccccn1
IC50 [1]: > 32 µM (inactive)
EC50 [2]: 0.151 µM (active)
IC50 [3]: > 32 µM (inactive)

O=C(Oc1cccc(-n2cnnn2)c1)c1ccco1
IC50 (Coagulation factor XII): 12.4 µM (active)
AC50 [4]: 23.8 µM (active)
EC50 (Protein RecA): 15.1 µM (active)

N#CC1=C(N)Oc2c(ccc3ccccc23)C1c1cccs1 (stereo unspecified)
EC50 [5]: 0.246 µM (active)
EC50 [6]: 0.246 µM (inconclusive)
EC50 [7]: 5.47 µM (inconclusive)
EC50 [8]: 0.474 µM (active)
EC50 [9]: 9.28 µM (inconclusive)
EC50 [10]: 0.162 µM (inconclusive)
EC50 [11]: 0.162 µM (active)
EC50 (cells): 0.885 µM (active)
EC50 [12]: 9.47 µM (active)
EC50 [13]: < 0.1 µM (active)
EC50 [14]: 9.28 µM (active)
IC50 (J774.A1): 1.86 µM (active)
EC50 [15]: 0.739 µM (active)

Cc1ccc(OCC(=O)NC(C)c2ccc(Cl)cc2Cl)c([N+](=O)[O-])n1 (stereo unspecified)
EC50 [16]: > 50 µM (inactive)

CCOc1ccc(-c2n[nH]c(C)c2-c2ccccc2)c(O)c1
EC50 [17]: > 32 µM (inactive)
EC50 (Cannabinoid receptor 1 [18]): > 32 µM (inactive)
IC50 [19]: > 32 µM (inactive)
IC50 (Cannabinoid receptor 1 [20]): 4.14 µM (active)
IC50 [21]: 18.4 µM (inactive)
IC50 (Cannabinoid receptor 2 [22]): 23.8 µM (inactive)
EC50 (Cannabinoid receptor 2 [23]): > 32 µM (inactive)

CC(C)(C)CCN1CCC[C@@H](NC(=O)COc2ccc(F)cc2Cl)C1
EC50 [24]: 10 µM (active)

O=C(O)CCN1C(=O)/C(=C/c2cccc(OCc3ccc(F)cc3)c2)SC1=S
IC50 [25]: 1.9 µM (active)
EC50 [26]: 3 µM (active)
EC50 [27]: 0.243 µM (active)
